# Laboratory results published in PubChem BioAssay AID2060624 (Molecular Pharmacology Branch, DTP, NCI, 2025).
# Test system: 217524-143-R1-J4-PDC spheroids with HUVEC/MSC, viability
# Test: Anticancer human tumor 217524-143-R1-J4-PDC patient-derived pancreatic carcinoma cell line growth inhibition [CLK]
# Conditions: for IC50: curve of first compound; for viability, T/C: stronger effect = lower value
# Procedure, shortened: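 Multi-cell-type spheroids combined patient-derived tumor cells with HUVEC endothelial cells and human mesenchymal stem cells. Paired agents were dosed in half-log steps down from about clinical Cmax, or from 10 microM where Cmax was unknown.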
# [1] = second compound 0.0316 µM, first compound 0.00949 µM
# [2] = second compound 0.0316 µM, first compound 0.03 µM
# [3] = second compound 0.0316 µM, first compound 0.0949 µM
# [4] = second compound 0.0316 µM, first compound 0.3 µM
# [5] = second compound 0.1 µM, first compound 0.00949 µM
# [6] = second compound 0.1 µM, first compound 0.03 µM
# [7] = second compound 0.1 µM, first compound 0.0949 µM
# [8] = second compound 0.1 µM, first compound 0.3 µM
# [9] = second compound 0.316 µM, first compound 0.00949 µM
# [10] = second compound 0.316 µM, first compound 0.03 µM
# [11] = second compound 0.316 µM, first compound 0.0949 µM
# [12] = second compound 0.316 µM, first compound 0.3 µM
# [13] = second compound 1 µM, first compound 0.00949 µM
# [14] = second compound 1 µM, first compound 0.03 µM
# [15] = second compound 1 µM, first compound 0.0949 µM
# [16] = second compound 1 µM, first compound 0.3 µM
# [17] = second compound 3.16 µM, first compound 0.00949 µM
# [18] = second compound 3.16 µM, first compound 0.03 µM
# [19] = second compound 3.16 µM, first compound 0.0949 µM
# [20] = second compound 3.16 µM, first compound 0.3 µM
# [21] = second compound 10 µM, first compound 0.00949 µM
# [22] = second compound 10 µM, first compound 0.03 µM
# [23] = second compound 10 µM, first compound 0.0949 µM
# [24] = second compound 10 µM, first compound 0.3 µM
# [25] = second compound 0.0316 µM, first compound 0.0316 µM
# [26] = second compound 0.0316 µM, first compound 0.1 µM
# [27] = second compound 0.0316 µM, first compound 0.316 µM
# [28] = second compound 0.0316 µM, first compound 1 µM
# [29] = second compound 0.0316 µM, first compound 3.16 µM
# [30] = second compound 0.0316 µM, first compound 10 µM
# [31] = second compound 0.1 µM, first compound 0.0316 µM
# [32] = second compound 0.1 µM, first compound 0.1 µM
# [33] = second compound 0.1 µM, first compound 0.316 µM
# [34] = second compound 0.1 µM, first compound 1 µM
# [35] = second compound 0.1 µM, first compound 3.16 µM
# [36] = second compound 0.1 µM, first compound 10 µM
# [37] = second compound 0.316 µM, first compound 0.0316 µM
# [38] = second compound 0.316 µM, first compound 0.1 µM
# [39] = second compound 0.316 µM, first compound 0.316 µM
# [40] = second compound 0.316 µM, first compound 1 µM
# [41] = second compound 0.316 µM, first compound 3.16 µM
# [42] = second compound 0.316 µM, first compound 10 µM
# [43] = second compound 1 µM, first compound 0.0316 µM
# [44] = second compound 1 µM, first compound 0.1 µM
# [45] = second compound 1 µM, first compound 0.316 µM
# [46] = second compound 1 µM, first compound 1 µM
# [47] = second compound 1 µM, first compound 3.16 µM
# [48] = second compound 1 µM, first compound 10 µM
# [49] = second compound 3.16 µM, first compound 0.0316 µM
# [50] = second compound 3.16 µM, first compound 0.1 µM
# [51] = second compound 3.16 µM, first compound 0.316 µM
# [52] = second compound 3.16 µM, first compound 1 µM
# [53] = second compound 3.16 µM, first compound 3.16 µM
# [54] = second compound 3.16 µM, first compound 10 µM
# [55] = second compound 10 µM, first compound 0.0316 µM
# [56] = second compound 10 µM, first compound 0.1 µM
# [57] = second compound 10 µM, first compound 0.316 µM
# [58] = second compound 10 µM, first compound 1 µM
# [59] = second compound 10 µM, first compound 3.16 µM
# [60] = second compound 10 µM, first compound 10 µM
# 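Note: spheroids exposed to agents for seven days before reading.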
# 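Throughout, for viability, T/C: 100% = DMSO vehicle control viability.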
structure (smiles),measurement,setting,value
CC(C)CC(NC(=O)C(Cc1ccccc1)NC(=O)c1cnccn1)B(O)O (stereo not drawn) + CN1CCN(c2cc(C(=O)Nc3cc4cc(-c5cnn(C)c5)ccc4cn3)ccn2)CC1,IC50,second compound 0.0316 µM,3.03 nM
same,IC50,second compound 0.1 µM,2.29 nM
same,IC50,second compound 0.316 µM,< 0.949 nM
same,IC50,second compound 1 µM,< 0.949 nM
same,IC50,second compound 3.16 µM,< 0.949 nM
same,IC50,second compound 10 µM,< 0.949 nM
same,"viability, T/C","second compound 0.0316 µM, first compound 0.000949 µM",89.7%
same,"viability, T/C","second compound 0.0316 µM, first compound 0.003 µM",49.9%
same,"viability, T/C",[1],22.4%
same,"viability, T/C",[2],6.55%
same,"viability, T/C",[3],5.49%
same,"viability, T/C",[4],2.12%
same,"viability, T/C","second compound 0.1 µM, first compound 0.000949 µM",58.3%
same,"viability, T/C","second compound 0.1 µM, first compound 0.003 µM",47.5%
same,"viability, T/C",[5],14.4%
same,"viability, T/C",[6],5.38%
same,"viability, T/C",[7],3.86%
same,"viability, T/C",[8],2.25%
same,"viability, T/C","second compound 0.316 µM, first compound 0.000949 µM",25%
same,"viability, T/C","second compound 0.316 µM, first compound 0.003 µM",24%
same,"viability, T/C",[9],3.44%
same,"viability, T/C",[10],1.85%
same,"viability, T/C",[11],1.33%
same,"viability, T/C",[12],0.89%
same,"viability, T/C","second compound 1 µM, first compound 0.000949 µM",1.64%
same,"viability, T/C","second compound 1 µM, first compound 0.003 µM",0.62%
same,"viability, T/C",[13],0.77%
same,"viability, T/C",[14],0.46%
same,"viability, T/C",[15],0.4%
same,"viability, T/C",[16],0.42%
same,"viability, T/C","second compound 3.16 µM, first compound 0.000949 µM",0.67%
same,"viability, T/C","second compound 3.16 µM, first compound 0.003 µM",0.98%
same,"viability, T/C",[17],2.38%
same,"viability, T/C",[18],1.54%
same,"viability, T/C",[19],0.63%
same,"viability, T/C",[20],0.66%
same,"viability, T/C","second compound 10 µM, first compound 0.000949 µM",0.3%
same,"viability, T/C","second compound 10 µM, first compound 0.003 µM",0.19%
same,"viability, T/C",[21],0.47%
same,"viability, T/C",[22],0.32%
same,"viability, T/C",[23],0.23%
same,"viability, T/C",[24],0.22%
CC1(C)CCC(CN2CCN(c3ccc(C(=O)NS(=O)(=O)c4ccc(NCC5CCOCC5)c([N+](=O)[O-])c4)c(Oc4cnc5[nH]ccc5c4)c3)CC2)=C(c2ccc(Cl)cc2)C1 + CN1CCN(c2cc(C(=O)Nc3cc4cc(-c5cnn(C)c5)ccc4cn3)ccn2)CC1,IC50,second compound 0.0316 µM,5020 nM
same,IC50,second compound 0.1 µM,3820 nM
same,IC50,second compound 0.316 µM,< 31.6 nM
same,IC50,second compound 1 µM,< 31.6 nM
same,IC50,second compound 3.16 µM,< 31.6 nM
same,IC50,second compound 10 µM,< 31.6 nM
same,"viability, T/C",[25],83.2%
same,"viability, T/C",[26],68.9%
same,"viability, T/C",[27],89.4%
same,"viability, T/C",[28],88.4%
same,"viability, T/C",[29],77.1%
same,"viability, T/C",[30],9.4%
same,"viability, T/C",[31],55.5%
same,"viability, T/C",[32],55%
same,"viability, T/C",[33],55.1%
same,"viability, T/C",[34],65.7%
same,"viability, T/C",[35],60.2%
same,"viability, T/C",[36],7.83%
same,"viability, T/C",[37],19.1%
same,"viability, T/C",[38],20.4%
same,"viability, T/C",[39],21.5%
same,"viability, T/C",[40],22.8%
same,"viability, T/C",[41],20.9%
same,"viability, T/C",[42],6.29%
same,"viability, T/C",[43],2.02%
same,"viability, T/C",[44],1.96%
same,"viability, T/C",[45],1.65%
same,"viability, T/C",[46],1.7%
same,"viability, T/C",[47],1.3%
same,"viability, T/C",[48],1.35%
same,"viability, T/C",[49],0.59%
same,"viability, T/C",[50],0.61%
same,"viability, T/C",[51],0.76%
same,"viability, T/C",[52],0.45%
same,"viability, T/C",[53],0.49%
same,"viability, T/C",[54],0.25%
same,"viability, T/C",[55],0.16%
same,"viability, T/C",[56],0.16%
same,"viability, T/C",[57],0.19%
same,"viability, T/C",[58],0.26%
same,"viability, T/C",[59],0.24%
same,"viability, T/C",[60],0.17%
CC1COCCN1c1cc(C2(S(C)(=N)=O)CC2)nc(-c2ccnc3[nH]ccc23)n1 (stereo not drawn) + CN1CCN(c2cc(C(=O)Nc3cc4cc(-c5cnn(C)c5)ccc4cn3)ccn2)CC1,IC50,second compound 0.0316 µM,1430 nM
same,IC50,second compound 0.1 µM,342 nM
same,IC50,second compound 0.316 µM,< 31.6 nM
same,IC50,second compound 1 µM,< 31.6 nM
same,IC50,second compound 3.16 µM,< 31.6 nM
same,IC50,second compound 10 µM,< 31.6 nM
same,"viability, T/C",[25],93.1%
same,"viability, T/C",[26],79.7%
same,"viability, T/C",[27],63.9%
same,"viability, T/C",[28],66.3%
same,"viability, T/C",[29],32.9%
same,"viability, T/C",[30],18.6%
same,"viability, T/C",[31],56.7%
same,"viability, T/C",[32],67.3%
same,"viability, T/C",[33],43.1%
same,"viability, T/C",[34],42.3%
same,"viability, T/C",[35],29.1%
same,"viability, T/C",[36],16.4%
same,"viability, T/C",[37],22.1%
same,"viability, T/C",[38],19.2%
same,"viability, T/C",[39],17.1%
same,"viability, T/C",[40],16.1%
same,"viability, T/C",[41],12.3%
same,"viability, T/C",[42],11.4%
same,"viability, T/C",[43],1.72%
same,"viability, T/C",[44],1.95%
same,"viability, T/C",[45],2.1%
same,"viability, T/C",[46],1.89%
same,"viability, T/C",[47],1.87%
same,"viability, T/C",[48],1.22%
same,"viability, T/C",[49],0.77%
same,"viability, T/C",[50],0.42%
same,"viability, T/C",[51],0.98%
same,"viability, T/C",[52],0.65%
same,"viability, T/C",[53],0.84%
same,"viability, T/C",[54],1.13%
same,"viability, T/C",[55],0.21%
same,"viability, T/C",[56],0.17%
same,"viability, T/C",[57],0.25%
same,"viability, T/C",[58],0.29%
same,"viability, T/C",[59],0.29%
same,"viability, T/C",[60],0.25%
NC(=O)C(=Cn1cnc(-c2cc(C(F)(F)F)cc(C(F)(F)F)c2)n1)c1cncnc1 + CN1CCN(c2cc(C(=O)Nc3cc4cc(-c5cnn(C)c5)ccc4cn3)ccn2)CC1,IC50,second compound 0.0316 µM,21.8 nM
same,IC50,second compound 0.1 µM,< 9.49 nM
same,IC50,second compound 0.316 µM,< 9.49 nM
same,IC50,second compound 1 µM,< 9.49 nM
same,IC50,second compound 3.16 µM,< 9.49 nM
same,IC50,second compound 10 µM,< 9.49 nM
same,"viability, T/C",[1],80.7%
same,"viability, T/C",[2],39.1%
same,"viability, T/C",[3],22.3%
same,"viability, T/C",[4],21.2%
same,"viability, T/C","second compound 0.0316 µM, first compound 0.949 µM",23.1%
same,"viability, T/C","second compound 0.0316 µM, first compound 3 µM",17.8%
same,"viability, T/C",[5],35.9%
same,"viability, T/C",[6],23.7%
same,"viability, T/C",[7],14%
same,"viability, T/C",[8],15.4%
same,"viability, T/C","second compound 0.1 µM, first compound 0.949 µM",14.6%
same,"viability, T/C","second compound 0.1 µM, first compound 3 µM",10.6%
same,"viability, T/C",[9],10.8%
same,"viability, T/C",[10],8.91%
same,"viability, T/C",[11],4.48%
same,"viability, T/C",[12],4%
same,"viability, T/C","second compound 0.316 µM, first compound 0.949 µM",1.55%
same,"viability, T/C","second compound 0.316 µM, first compound 3 µM",0.81%
same,"viability, T/C",[13],0.79%
same,"viability, T/C",[14],0.59%
same,"viability, T/C",[15],0.94%
same,"viability, T/C",[16],0.88%
same,"viability, T/C","second compound 1 µM, first compound 0.949 µM",0.76%
same,"viability, T/C","second compound 1 µM, first compound 3 µM",1.07%
same,"viability, T/C",[17],0.72%
same,"viability, T/C",[18],0.67%
same,"viability, T/C",[19],0.62%
same,"viability, T/C",[20],0.55%
same,"viability, T/C","second compound 3.16 µM, first compound 0.949 µM",0.69%
same,"viability, T/C","second compound 3.16 µM, first compound 3 µM",0.68%
same,"viability, T/C",[21],0.2%
same,"viability, T/C",[22],0.17%
same,"viability, T/C",[23],0.21%
same,"viability, T/C",[24],0.22%
same,"viability, T/C","second compound 10 µM, first compound 0.949 µM",0.24%
same,"viability, T/C","second compound 10 µM, first compound 3 µM",0.2%
